Measurements: ChEMBL document CHEMBL5465560, “Selectivity Literature for EUbOPEN Chemogenomic Library” (2024)

Columns and labels:
[1] = molecular target: T1, Receptor-interacting serine/threonine-protein kinase 1 (Homo sapiens) (UniProt Q13546); experiment: Selectivity interaction (KinomeScan (DiscoverX)) EUB0000618a RIPK1; details: at 10 µM
T1 sequence (whole entry): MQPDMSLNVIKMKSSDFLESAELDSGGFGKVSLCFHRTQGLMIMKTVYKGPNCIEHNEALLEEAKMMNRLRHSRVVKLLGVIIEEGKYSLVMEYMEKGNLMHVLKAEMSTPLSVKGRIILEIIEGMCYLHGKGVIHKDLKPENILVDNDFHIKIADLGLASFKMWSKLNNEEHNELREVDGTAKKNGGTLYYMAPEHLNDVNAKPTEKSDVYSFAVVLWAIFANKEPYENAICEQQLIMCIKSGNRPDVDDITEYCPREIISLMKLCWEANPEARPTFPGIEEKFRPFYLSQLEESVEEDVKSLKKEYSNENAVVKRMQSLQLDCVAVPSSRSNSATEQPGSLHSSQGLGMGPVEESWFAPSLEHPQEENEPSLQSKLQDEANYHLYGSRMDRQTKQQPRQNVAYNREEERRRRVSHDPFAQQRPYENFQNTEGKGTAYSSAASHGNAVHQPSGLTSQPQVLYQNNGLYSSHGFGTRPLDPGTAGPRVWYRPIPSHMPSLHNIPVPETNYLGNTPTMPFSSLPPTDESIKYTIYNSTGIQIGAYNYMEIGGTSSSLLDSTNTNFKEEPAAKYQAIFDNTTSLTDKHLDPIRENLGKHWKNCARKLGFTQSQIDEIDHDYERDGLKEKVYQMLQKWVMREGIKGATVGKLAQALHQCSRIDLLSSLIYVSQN

[2] = molecular target: T2, Serine/threonine-protein kinase DCLK2 (Homo sapiens) (UniProt Q8N568); experiment: Selectivity interaction (SelectScreen profiling (Invitrogen)) EUB0000607a DCLK2; details: at 2 µM
T2 sequence (whole entry): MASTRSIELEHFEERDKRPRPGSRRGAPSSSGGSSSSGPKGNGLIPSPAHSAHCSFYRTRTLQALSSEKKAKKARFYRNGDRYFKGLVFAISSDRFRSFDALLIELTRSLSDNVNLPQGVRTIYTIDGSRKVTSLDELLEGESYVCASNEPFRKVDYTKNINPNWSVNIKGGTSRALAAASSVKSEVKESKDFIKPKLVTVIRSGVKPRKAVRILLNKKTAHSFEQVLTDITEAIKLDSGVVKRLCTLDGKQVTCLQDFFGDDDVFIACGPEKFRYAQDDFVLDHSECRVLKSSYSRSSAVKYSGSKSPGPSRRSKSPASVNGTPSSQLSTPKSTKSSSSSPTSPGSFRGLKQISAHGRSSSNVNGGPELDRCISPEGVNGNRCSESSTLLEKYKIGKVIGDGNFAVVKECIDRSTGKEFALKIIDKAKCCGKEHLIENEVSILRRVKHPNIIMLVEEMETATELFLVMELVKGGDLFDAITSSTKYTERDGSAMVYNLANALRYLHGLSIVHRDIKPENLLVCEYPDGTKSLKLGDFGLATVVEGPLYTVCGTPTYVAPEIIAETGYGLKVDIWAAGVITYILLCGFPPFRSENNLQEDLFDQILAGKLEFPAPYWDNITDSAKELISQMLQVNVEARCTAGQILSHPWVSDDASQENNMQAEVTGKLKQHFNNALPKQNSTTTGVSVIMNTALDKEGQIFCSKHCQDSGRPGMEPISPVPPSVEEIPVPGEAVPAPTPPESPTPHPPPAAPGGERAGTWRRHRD

[3] = molecular target: Serine/threonine-protein kinase Nek6 (Homo sapiens) (UniProt Q9HC98); experiment: Selectivity interaction (KinomeScan (DiscoverX)) EUB0000607a NEK6; details: at 10 µM
Serine/threonine-protein kinase Nek6 (Homo sapiens), sequence (Q9HC98 whole entry): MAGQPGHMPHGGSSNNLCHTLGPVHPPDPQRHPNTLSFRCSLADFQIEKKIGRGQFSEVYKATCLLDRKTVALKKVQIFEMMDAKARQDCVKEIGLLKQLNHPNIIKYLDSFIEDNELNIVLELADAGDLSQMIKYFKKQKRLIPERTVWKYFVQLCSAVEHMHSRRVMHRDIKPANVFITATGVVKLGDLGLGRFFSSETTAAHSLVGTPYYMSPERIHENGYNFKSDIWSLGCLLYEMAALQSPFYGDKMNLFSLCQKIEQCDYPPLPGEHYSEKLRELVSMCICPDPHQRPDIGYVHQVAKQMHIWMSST

[4] = molecular target: Serine/threonine-protein kinase N2 (Homo sapiens, UniProt Q16513); experiment: Selectivity interaction (KinomeScan (DiscoverX)) EUB0000607a PKN2; details: at 10 µM
Serine/threonine-protein kinase N2, sequence (Q16513 whole entry, looked up): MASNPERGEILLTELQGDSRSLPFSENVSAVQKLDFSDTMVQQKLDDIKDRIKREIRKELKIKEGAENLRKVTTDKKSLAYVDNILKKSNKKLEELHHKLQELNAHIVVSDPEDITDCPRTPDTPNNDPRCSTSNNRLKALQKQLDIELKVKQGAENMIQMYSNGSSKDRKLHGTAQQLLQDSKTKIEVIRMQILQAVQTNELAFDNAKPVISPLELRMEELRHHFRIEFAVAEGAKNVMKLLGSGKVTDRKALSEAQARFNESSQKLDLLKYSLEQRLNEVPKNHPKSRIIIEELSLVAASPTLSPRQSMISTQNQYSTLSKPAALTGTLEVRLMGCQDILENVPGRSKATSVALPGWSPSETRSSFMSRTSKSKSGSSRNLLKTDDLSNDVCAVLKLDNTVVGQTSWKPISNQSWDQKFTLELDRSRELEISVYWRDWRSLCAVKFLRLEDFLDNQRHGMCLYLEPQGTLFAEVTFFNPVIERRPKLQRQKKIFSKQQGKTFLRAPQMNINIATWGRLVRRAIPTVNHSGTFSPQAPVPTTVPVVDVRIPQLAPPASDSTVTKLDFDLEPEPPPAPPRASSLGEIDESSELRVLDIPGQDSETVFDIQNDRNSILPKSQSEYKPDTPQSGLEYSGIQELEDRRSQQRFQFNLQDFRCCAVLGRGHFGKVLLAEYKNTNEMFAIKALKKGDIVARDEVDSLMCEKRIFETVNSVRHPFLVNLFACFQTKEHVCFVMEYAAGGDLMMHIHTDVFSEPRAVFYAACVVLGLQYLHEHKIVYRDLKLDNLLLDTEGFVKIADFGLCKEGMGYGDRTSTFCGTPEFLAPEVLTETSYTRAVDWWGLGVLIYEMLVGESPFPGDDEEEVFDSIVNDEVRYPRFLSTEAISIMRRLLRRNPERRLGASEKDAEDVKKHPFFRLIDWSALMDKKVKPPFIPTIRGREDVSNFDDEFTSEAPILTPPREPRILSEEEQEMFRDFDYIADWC

[5] = molecular target: Serine/threonine-protein kinase MARK2 (Homo sapiens) (UniProt Q7KZI7); experiment: Selectivity interaction (ActivX KiNativ screen (ex vivo kinase selectivity in human PBMCs)) EUB0001619a MARK2; format: cell-based; details: PBMC, at 1 µM
[6] = molecular target: Serine/threonine-protein kinase Nek6 (Homo sapiens) (UniProt Q9HC98); experiment: Selectivity interaction (ActivX KiNativ screen (ex vivo kinase selectivity in human PBMCs)) EUB0001619a NEK6; format: cell-based; details: PBMC, at 1 µM
[7] = molecular target: Serine/threonine-protein kinase PAK 6 (Homo sapiens) (UniProt Q9NQU5); experiment: Selectivity interaction (KinomeScan (DiscoverX)) EUB0000045b PAK6; details: at 1 µM
Serine/threonine-protein kinase PAK 6 (Homo sapiens), sequence (Q9NQU5 whole entry, looked up): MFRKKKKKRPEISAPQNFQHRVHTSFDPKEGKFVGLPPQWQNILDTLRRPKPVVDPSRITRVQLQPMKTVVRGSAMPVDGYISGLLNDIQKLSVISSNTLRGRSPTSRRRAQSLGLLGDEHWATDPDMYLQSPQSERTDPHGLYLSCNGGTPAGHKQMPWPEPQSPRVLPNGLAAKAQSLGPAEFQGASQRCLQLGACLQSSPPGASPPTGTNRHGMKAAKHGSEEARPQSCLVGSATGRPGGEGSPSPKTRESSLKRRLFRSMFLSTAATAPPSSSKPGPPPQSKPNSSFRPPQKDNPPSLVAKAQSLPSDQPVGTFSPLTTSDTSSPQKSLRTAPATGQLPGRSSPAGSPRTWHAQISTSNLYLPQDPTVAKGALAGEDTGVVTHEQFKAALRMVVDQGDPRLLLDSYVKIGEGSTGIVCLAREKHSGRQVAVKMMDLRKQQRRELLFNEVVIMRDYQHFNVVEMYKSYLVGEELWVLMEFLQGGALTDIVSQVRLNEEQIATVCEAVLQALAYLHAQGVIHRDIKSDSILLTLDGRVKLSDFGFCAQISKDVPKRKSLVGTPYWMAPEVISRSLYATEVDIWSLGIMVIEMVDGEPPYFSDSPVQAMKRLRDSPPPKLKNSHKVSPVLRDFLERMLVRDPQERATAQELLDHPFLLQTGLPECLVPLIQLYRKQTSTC

[8] = molecular target: Serine/threonine-protein kinase Nek7 (Homo sapiens) (UniProt Q8TDX7); experiment: Selectivity interaction (KinomeScan (DiscoverX)) EUB0000045b NEK7
Serine/threonine-protein kinase Nek7 (Homo sapiens), sequence (Q8TDX7 whole entry, looked up): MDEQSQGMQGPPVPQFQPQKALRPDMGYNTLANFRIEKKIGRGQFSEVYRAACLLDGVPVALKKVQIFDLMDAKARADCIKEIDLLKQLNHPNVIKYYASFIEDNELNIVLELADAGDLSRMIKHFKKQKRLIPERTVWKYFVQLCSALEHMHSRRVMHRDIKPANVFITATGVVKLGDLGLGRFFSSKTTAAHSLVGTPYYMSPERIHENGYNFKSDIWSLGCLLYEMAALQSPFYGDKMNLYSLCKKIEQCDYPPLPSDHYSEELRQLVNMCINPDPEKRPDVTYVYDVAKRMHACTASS

[9] = molecular target: Fibroblast growth factor receptor 4 (Homo sapiens, UniProt P22455); details: at 10 µM
[10] = molecular target: 3',5'-cyclic-AMP phosphodiesterase 4A (Homo sapiens, UniProt P27815); experiment: Selectivity interaction (Enzyme panel (AstraZeneca, AlphaScreen, functional assay)) EUB0000621a PDE4A
[11] = molecular target: Serine/threonine-protein kinase Chk2 (Homo sapiens) (UniProt O96017); experiment: Selectivity interaction (ActivX KiNativ screen (kinase selectivity in THP-1 cell lysates)) EUB0000639a CHEK2; format: subcellular; details: lysate, at 0.2 µM
[12] = molecular target: Cyclin-dependent kinase 3 (Homo sapiens) (UniProt Q00526); experiment: Selectivity interaction (KinomeScan (DiscoverX)) EUB0001049a CDK3; details: at 1 µM
Cyclin-dependent kinase 3 (Homo sapiens), sequence (Q00526 whole entry, looked up): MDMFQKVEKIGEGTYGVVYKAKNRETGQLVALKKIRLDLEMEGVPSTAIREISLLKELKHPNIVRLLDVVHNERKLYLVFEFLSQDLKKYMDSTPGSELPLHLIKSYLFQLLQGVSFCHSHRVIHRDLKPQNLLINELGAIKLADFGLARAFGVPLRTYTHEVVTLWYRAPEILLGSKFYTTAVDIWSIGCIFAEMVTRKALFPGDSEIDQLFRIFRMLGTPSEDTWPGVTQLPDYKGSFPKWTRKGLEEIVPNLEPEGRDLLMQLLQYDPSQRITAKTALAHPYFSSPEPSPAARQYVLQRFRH

[13] = molecular target: Serine/threonine-protein kinase RIO2 (Homo sapiens) (UniProt Q9BVS4); experiment: Selectivity interaction (KinomeScan (DiscoverX)) EUB0001049a RIOK2; details: at 1 µM
[14] = molecular target: Ephrin type-A receptor 7 (Homo sapiens) (UniProt Q15375); experiment: Selectivity interaction (KinomeScan (DiscoverX)) EUB0001049a EPHA7; details: at 1 µM
Ephrin type-A receptor 7 (Homo sapiens), sequence (Q15375 28-998 limits assumed): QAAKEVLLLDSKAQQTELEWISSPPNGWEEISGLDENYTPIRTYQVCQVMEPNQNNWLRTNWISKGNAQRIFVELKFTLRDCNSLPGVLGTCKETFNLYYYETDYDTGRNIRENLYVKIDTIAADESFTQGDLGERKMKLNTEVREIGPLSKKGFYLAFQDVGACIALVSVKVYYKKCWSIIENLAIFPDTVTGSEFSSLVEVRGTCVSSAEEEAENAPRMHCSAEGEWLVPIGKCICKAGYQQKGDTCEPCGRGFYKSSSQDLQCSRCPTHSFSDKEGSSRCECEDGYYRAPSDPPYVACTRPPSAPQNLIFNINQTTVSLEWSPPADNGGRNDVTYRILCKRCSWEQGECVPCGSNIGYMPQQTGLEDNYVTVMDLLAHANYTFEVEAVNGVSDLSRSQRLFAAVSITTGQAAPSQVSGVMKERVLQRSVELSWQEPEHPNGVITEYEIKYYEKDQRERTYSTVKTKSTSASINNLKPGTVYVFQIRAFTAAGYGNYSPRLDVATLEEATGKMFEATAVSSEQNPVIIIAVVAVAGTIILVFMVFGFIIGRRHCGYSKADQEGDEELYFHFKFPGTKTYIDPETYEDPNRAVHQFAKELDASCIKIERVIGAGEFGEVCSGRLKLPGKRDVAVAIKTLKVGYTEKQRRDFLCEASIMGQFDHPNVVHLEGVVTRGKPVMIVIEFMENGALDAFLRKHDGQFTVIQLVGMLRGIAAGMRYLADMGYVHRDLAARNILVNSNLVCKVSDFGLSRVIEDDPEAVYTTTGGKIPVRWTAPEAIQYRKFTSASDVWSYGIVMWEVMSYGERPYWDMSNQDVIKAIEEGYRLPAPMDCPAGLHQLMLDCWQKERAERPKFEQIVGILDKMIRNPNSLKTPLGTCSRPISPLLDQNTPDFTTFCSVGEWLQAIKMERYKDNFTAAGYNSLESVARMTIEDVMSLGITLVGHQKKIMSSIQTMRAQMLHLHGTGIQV

[15] = molecular target: Calcium/calmodulin-dependent protein kinase type 1D (Homo sapiens) (UniProt Q8IU85); experiment: Selectivity interaction (KinomeScan (DiscoverX)) EUB0000666a CAMK1D; details: at 10 µM
Calcium/calmodulin-dependent protein kinase type 1D (Homo sapiens), sequence (Q8IU85 whole entry, looked up): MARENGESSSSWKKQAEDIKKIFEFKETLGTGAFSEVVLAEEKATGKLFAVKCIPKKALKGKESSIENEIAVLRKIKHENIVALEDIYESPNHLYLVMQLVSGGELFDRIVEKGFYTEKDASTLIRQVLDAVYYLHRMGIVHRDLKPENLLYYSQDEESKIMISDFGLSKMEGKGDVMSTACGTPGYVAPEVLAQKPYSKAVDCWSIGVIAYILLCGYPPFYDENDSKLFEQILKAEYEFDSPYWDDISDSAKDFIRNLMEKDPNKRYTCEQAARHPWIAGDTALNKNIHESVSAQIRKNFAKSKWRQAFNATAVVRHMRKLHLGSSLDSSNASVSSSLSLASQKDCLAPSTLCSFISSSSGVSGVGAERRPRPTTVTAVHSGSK

[16] = molecular target: TGF-beta receptor type-2 (Homo sapiens) (UniProt P37173); experiment: Selectivity interaction (KinomeScan (DiscoverX)) EUB0000666a TGFBR2; details: at 10 µM
[17] = molecular target: Tyrosine-protein kinase Fyn (Homo sapiens) (UniProt P06241); experiment: Selectivity interaction (KinomeScan (DiscoverX)) EUB0000092b FYN; details: at 10 µM
Tyrosine-protein kinase Fyn (Homo sapiens), sequence (P06241 2-537 limits assumed): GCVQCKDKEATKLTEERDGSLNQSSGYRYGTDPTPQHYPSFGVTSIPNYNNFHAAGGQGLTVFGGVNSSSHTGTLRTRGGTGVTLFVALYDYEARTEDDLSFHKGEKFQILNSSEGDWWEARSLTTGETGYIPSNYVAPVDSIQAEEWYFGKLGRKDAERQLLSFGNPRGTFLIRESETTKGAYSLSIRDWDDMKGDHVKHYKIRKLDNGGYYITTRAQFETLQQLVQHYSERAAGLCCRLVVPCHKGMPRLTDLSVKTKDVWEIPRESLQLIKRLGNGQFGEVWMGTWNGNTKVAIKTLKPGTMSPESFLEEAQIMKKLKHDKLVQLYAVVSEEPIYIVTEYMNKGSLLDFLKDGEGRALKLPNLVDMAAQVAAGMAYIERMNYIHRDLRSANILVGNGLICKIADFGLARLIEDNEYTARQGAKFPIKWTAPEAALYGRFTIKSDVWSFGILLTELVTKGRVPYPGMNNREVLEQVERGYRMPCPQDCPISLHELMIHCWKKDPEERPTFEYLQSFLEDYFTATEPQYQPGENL

[18] = molecular target: Cyclin-dependent kinase 17 (Homo sapiens) (UniProt Q00537); experiment: Selectivity interaction (KinomeScan (DiscoverX)) EUB0000092b CDK17; details: at 10 µM
Cyclin-dependent kinase 17 (Homo sapiens), sequence (Q00537 whole entry, looked up): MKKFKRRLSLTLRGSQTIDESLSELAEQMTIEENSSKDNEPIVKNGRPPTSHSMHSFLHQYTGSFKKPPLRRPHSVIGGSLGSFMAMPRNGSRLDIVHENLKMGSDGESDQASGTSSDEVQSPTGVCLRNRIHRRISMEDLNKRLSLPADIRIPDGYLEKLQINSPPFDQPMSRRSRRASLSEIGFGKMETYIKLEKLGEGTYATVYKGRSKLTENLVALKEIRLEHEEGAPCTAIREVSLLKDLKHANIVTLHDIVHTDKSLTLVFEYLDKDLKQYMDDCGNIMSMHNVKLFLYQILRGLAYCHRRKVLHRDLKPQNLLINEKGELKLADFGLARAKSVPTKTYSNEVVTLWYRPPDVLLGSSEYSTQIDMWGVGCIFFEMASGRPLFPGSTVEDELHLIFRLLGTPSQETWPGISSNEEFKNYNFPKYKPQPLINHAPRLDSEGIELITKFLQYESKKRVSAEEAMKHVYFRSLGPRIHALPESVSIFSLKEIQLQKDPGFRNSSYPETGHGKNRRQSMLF

[19] = molecular target: Calcium/calmodulin-dependent protein kinase type 1D (Homo sapiens) (UniProt Q8IU85); experiment: Selectivity interaction (Kinase panel (Z-LYTE Assay)) EUB0001632a CAMK1D; details: at 10 µM

For O[C@H]1CC[C@H](Nc2ncc3nc(Nc4c(F)cc(F)cc4F)n([C@H]4CCOC4)c3n2)CC1, the % of control [1] was 100%.

With CNC(=O)Nc1ccc(-c2nc(N3CC4CCC(C3)O4)c3cnn(C4CCC5(CC4)OCCO5)c3n2)cc1 the % of inhibition [2] was 2%, the % of control [3] was 90% and the % of control [4] was 83%.

In the case of N#Cc1cccc(-c2c[nH]c3ncnc(N4CCOCC4)c23)c1, the % of inhibition [5] is reported as 27% and the % of inhibition [6] is reported as -5%.

C=CC(=O)Nc1cc(-n2c(=O)ccc3cnc4ccc(-c5ccc(NS(C)(=O)=O)cc5)cc4c32)ccc1C was tested, and the % of control [7] was 98%, the % of control ([8]; at 1 µM) was 100% and the % of control ([8]; at 10 µM) was 71%.

COCC(=O)NC/C=C/c1ccc2ncnc(Nc3ccc(Oc4ccc(C)nc4)c(C)c3)c2c1 [CP-724714] showed a % of control [9] of 100%.

Cc1cc([C@@H](C)Nc2ccccc2C(=O)O)c2nc(N3CCOCC3)cc(=O)n2c1 [AZD-6482] showed an IC50 [10] of 17 µM.

For CC[C@@H]1[C@H](F)C(=O)N[C@@H]1COc1nccc2cc(C(N)=O)c(OC)cc12 [ZIMLOVISERTIB], the % of inhibition [11] was -0.3%.

COc1cc(Nc2nc(C)cc(-c3cnn4nc(OC)ccc34)n2)cc(C(F)(F)F)c1 was tested, and the % of control [12] was 90%, the % of control [13] was 87% and the % of control [14] was 77%.

Work on O=C(NOC[C@H](O)CO)c1ccc(F)c(F)c1Nc1ccc(I)cc1F yielded a % of control [15] of 89% and a % of control [16] of 100%.

CCC(=O)N1CCN(c2ccc(-n3c(=O)ccc4cnc5ccc(-c6cnc7ccccc7c6)cc5c43)cc2C(F)(F)F)CC1 showed a % of control [17] of 49% and a % of control [18] of 97%.

Cn1cc(-n2cnc3c(NCc4nc5cc(Cl)c(Cl)cc5[nH]4)nc(N4CCOCC4)nc32)cn1 showed a % of control [19] of 2.81%.
